Experimental data as given in publication PMC6332090, “Synthesis and Preliminary Evaluation of N-Oxide Derivatives for the Prevention of Atherothrombotic Events” (Molecules, 2015).
Read-outs that look alike come from different tables or passages of the source. Marks after values point to notes of the source that are not given here.

How the values were obtained:
[1] = system: rat platelet-rich plasma; experiment: In vitro antiplatelet activity: platelet aggregation in rat platelet-rich plasma (turbidimetric method of Born and Cross); assay type: cell-based; conditions: compounds and ASA at 150 μM, rat PRP, n = 3; for inhibition at 150 µM: Platelet
Method: In vitro antiplatelet activity was evaluated using rat platelet-rich plasma in the presence of ADP (10 μM), arachidonic acid (100 μM) and collagen (5 μg/mL) [15, 16].
Five rats (Wistar; 200–250 g) were previously anesthetized by inhalation of isoflurane using a vaporizing system. Animal breathing was monitored during all procedures. Blood was withdrawn from each rat’s aorta artery and mixed with 3.8% trisodium citrate (9:1 v/v). The animals were then euthanized by deepening of anesthesia. Platelet-rich plasma (PRP) was prepared by centrifugation at 375× g for 10 min at room temperature. The platelet-poor plasma (PPP) was prepared by centrifugation of the pellet at 1800× g for 10 min at room temperature. Platelet aggregation was monitored by the turbidimetric method of Born and Cross [16] using a Chrono-Log aggregometer. PRP (300 μL) was incubated at 37 °C for 1 min with continuous stirring at 900 rpm. ADP (10 μM), type I collagen (5 μg/mL; molecular weight of 115–130 kDa) and arachidonic acid (100 μM) were used to induce platelet aggregation. […] Acetylsalicylic acid (AAS, 150 μM) was used as positive control. The results were expressed as an inhibition percentage. The statistical analysis was performed using ANOVA followed by Tukey’ s test.

[2] = system: mouse pulmonary thromboembolism model; experiment: In vivo antithrombotic activity: acute pulmonary thromboembolism model induced by collagen-epinephrine mixture; conditions: mice; for deaths per group: ten per group, oral 100 µmol/10 g, 15 min after thrombogenic stimulus; for % Protection / Paralyzed or Died Animals/Total: oral single dose 100 µmol/10 g body weight; for % Protection: [1 − (paralyzed + death animals)/total animals] × 100; for Paralyzed or Died Animals/Total: collagen (11 mg/kg) plus epinephrine (0.7 mg/kg) i.v. after 60 min, evaluated 15 min after stimulus
Method: The antithrombotic effects of all compounds (3a,b, 4a,b, 8a,b, 9a,b, 13a,b and 14a,b) were evaluated in vivo using a mouse pulmonary thromboembolism model [18, 19].
In vivo pulmonary thromboembolism was induced in mice according to previously described procedures [18, 19]. Ten Swiss male mice (25−30 g) were used in each test group and the control group. Compounds (3a,b, 4a,b, 8a,b, 9a,b, 13a,b and 14a,b) and acetylsalicylic acid were given orally (100 µmol/10 g, 0.1 mL/10 g) using a 2% carboxymethylcellulose suspension as the vehicle. After 60 min, an intravenous injection of the thrombogenic stimulus containing a mixture of collagen (11 mg/kg) plus epinephrine (0.7 mg/kg) was administered through the tail vein. The dose of the pro-thrombotic mixture was previously characterized using a dose/response curve able to reliably reproduce 80%–90% mortality rate or animal paralysis [15]. The loss of the righting reflex was considered an indication of animal’s paralysis in the control group. The rates of animal survival and paralysis were evaluated 15 min after the administration of the thrombogenic stimulus. After this time, the animals were euthanized using carbon dioxide. […] The protection against acute pulmonary thromboembolism (percentage) was calculated as follows: [1 − (paralyzed + death animals)/total animals] × 100. The chi-square test was used to examine the difference between the control and treated groups.

[3] = system: micronucleated reticulocytes (MNRET) of mice; experiment: In vivo genotoxicity: micronucleus test in peripheral blood reticulocytes
Method: The genotoxicity induced by 14a was evaluated using the micronucleus test.
Compound 14a (250 mg/kg) and negative control (1% carboxymethylcellulose (CMC) suspension and 0.2% tween; 0.3 mL) were administered to the animals orally. The positive control group received cyclophosphamide (50 mg/kg; i.p.). Groups of 10 Swiss mice of both sexes (25−30 g) were used in each test and control group. After 30 h, the animals were anesthetized using a mixture of ketamine/xylazine (100/10 mg/kg; i.p.), and […] of blood were collected from the tail vein and added to laminas pre-stained with acridine orange. The animals were euthanized via deepening of anesthesia. One thousand reticulocytes per animal were counted, and the frequency of micronucleated cells was registered. […] When p < 0.05, the average values for the treatments were compared using the Tukey method, calculating the minimum significant difference at α = 0.05.

[4] = aggregation induced by ADP 10 μM
[5] = aggregation induced by arachidonic acid 100 μM
[6] = aggregation induced by collagen 5 μg/mL
[7] = aggregation induced by ADP 10 μM, read-out: Platelet Inhibition (%) ADP (10 μM)
[8] = aggregation induced by collagen 5 μg/mL, read-out: Platelet Inhibition (%) Collagen (5 μg/mL)
[9] = aggregation induced by arachidonic acid 100 μM, read-out: Platelet Inhibition (%) Arachidonic Acid (100 μM)

Compound | Platelet Inhibition (%) ADP (10 μM) [1, 4] | Platelet Inhibition (%) Arachidonic Acid (100 μM) [1, 5] [%] | Platelet Inhibition (%) Collagen (5 μg/mL) [1, 6] [%] | deaths per group [2] | % Protection [2] | Paralyzed or Died Animals/Total [2] | inhibition at 150 µM [1, 7] [%] | inhibition at 150 µM [1, 8] [%] | inhibition at 150 µM [1, 9] [%] | micronucleated reticulocytes (MNRET), frequency in 1000 cells ([3]; mouse, in vivo, po, 250 mg/kg) | micronucleated reticulocytes (MNRET), frequency in 1000 cells ([3]; mice, positive control 50 mg/kg i.p., blood collected after 30 h, mean ± SD)
3-((2-(3-Hydroxybenzoyl)hydrazono)methyl)-4-methyl-1,2,5-oxadiazole 2-oxide [Compound 3a] | 10.1 ± 3.3 % | 52.6 ± 4.1 | 17.5 ± 2.7 | two | 40 * % | 6/10 |  |  |  |  | 
3-((2-(4-Hydroxybenzoyl)hydrazono)methyl)-4-methyl-1,2,5-oxadiazole 2-oxide [Compound 3b] | 16.8 ± 2.9 % | 47.8 ± 3.7 | 10.5 ± 3.3 | two | 30 * % | 7/10 |  |  |  |  | 
5-((2-(3-Hydroxybenzoyl)hydrazono)methyl)benzo[c][1,2,5]oxadiazole 1-oxide [Compound 13a] | 47.1 ± 2.5 % | 52.3 ± 3.8 | 45.1 ± 3.8 |  | 70 *^,† % | 3/10 |  |  |  |  | 
CC(=O)Oc1ccccc1C(=O)O [ASA, acetylsalicylic acid, reference compound] | did not inhibit | 72.2 ± 3.7 |  | two | 30 * % | 7/10 | 0 | 77.1 ± 3.7 |  |  | 
O=C(NN=Cc1c(-c2ccccc2)no[n+]1[O-])c1cccc(O)c1 [Compound 8a, 3-((2-(3-Hydroxybenzoyl)hydrazono)methyl)-4-phenyl-1,2,5-oxadiazole 2-oxide] |  |  |  | two | 40 * % | 6/10 | 12.4 ± 3.7 | 21.8 ± 5.1 | 55.1 ± 4.3 |  | 
O=C(NN=Cc1c(-c2ccccc2)no[n+]1[O-])c1ccc(O)cc1 [Compound 8b, 3-((2-(4-Hydroxybenzoyl)hydrazono)methyl)-4-phenyl-1,2,5-oxadiazole 2-oxide] |  |  |  | two | 40 * % | 6/10 | 9.2 ± 2.8 | 8.8 ± 3.6 | 31.6 ± 3.9 |  | 
CC(=O)Oc1ccccc1C(=O)Oc1cccc(C(=O)N/N=C/c2c(-c3ccccc3)no[n+]2[O-])c1 [Compound 9a, (E)-3-((2-(3-((2-Acetoxybenzoyl)oxy)benzoyl)hydrazono)methyl)-4-phenyl-1,2,5-oxadiazole 2-oxide] |  |  |  | two | 30 * % | 7/10 | 53.4 ± 2.1 | 43.5 ± 4.7 | 73.4 ± 3.3 |  | 
CC(=O)Oc1ccccc1C(=O)Oc1ccc(C(=O)N/N=C/c2c(-c3ccccc3)no[n+]2[O-])cc1 [Compound 9b, (E)-3-((2-(4-((2-Acetoxybenzoyl)oxy)benzoyl)hydrazono)methyl)-4-phenyl-1,2,5-oxadiazole 2-oxide] |  |  |  |  | 50 *^,† % | 5/10 | 68.8 ± 1.3 | 47.2 ± 2.9 | 82.7 ± 2.1 |  | 
O=C(NN=Cc1ccc2c(c1)no[n+]2[O-])c1ccc(O)cc1 [Compound 13b, 5-((2-(4-Hydroxybenzoyl)hydrazono)methyl)benzo[c][1,2,5]oxadiazole 1-oxide] | 44.2 ± 5.1 % | 57.8 ± 4.9 | 43.0 ± 3.1 |  | 70 *^,† % | 3/10 |  |  |  |  | 
CC(=O)Oc1ccccc1C(=O)Oc1cccc(C(=O)N/N=C/c2ccc3c(c2)no[n+]3[O-])c1 [Compound 14a, (E)-5-((2-(3-((2-Acetoxybenzoyl)oxy)benzoyl)hydrazono)methyl)benzo[c][1,2,5]oxadiazole 1-oxide] |  | 76.9 ± 3.1 | 85.3 ± 3.7 |  | 80 *^,† % | 2/10 |  |  |  | < 4 | 
CC(=O)Oc1ccccc1C(=O)Oc1ccc(C(=O)N/N=C/c2ccc3c(c2)no[n+]3[O-])cc1 [Compound 14b, (E)-5-((2-(4-((2-Acetoxybenzoyl)oxy)benzoyl)hydrazono)methyl)benzo[c][1,2,5]oxadiazole 1-oxide] |  | 79.1 ± 1.9 | 79.8 ± 3.4 |  | 70 *^,† % | 3/10 |  |  |  |  | 
O=P1(N(CCCl)CCCl)NCCCO1 (stereo not drawn) [Cyclophosphamide, reference compound] |  |  |  |  |  |  |  |  |  |  | 41 ± 5
(E)-3-((2-(3-((2-Acetoxybenzoyl)oxy)benzoyl)hydrazono)methyl)-4-methyl-1,2,5-oxadiazole 2-oxide [Compound 4a] | 65.6 ± 2.4 % | 70.1 ± 2.9 | 37.8 ± 4.1 | two | 40 * % | 6/10 |  |  |  |  | 
(E)-3-((2-(4-((2-Acetoxybenzoyl)oxy)benzoyl)hydrazono)methyl)-4-methyl-1,2,5-oxadiazole 2-oxide [Compound 4b] |  | 87.5 ± 2.6 | 34.5 ± 3.5 |  | 50 *^,† % | 5/10 |  |  |  |  | 
